# Measurements reported in paper PMC5520492, “Inhibition of DNA2 nuclease as a therapeutic strategy targeting replication stress in cancer cells” (Oncogenesis, 2017).
# Legend:
# EXO1 = biological target: T1, EXO1 (Homo sapiens, UniProt Q9UQ84); experiment: EXO1 nuclease assay (2 kb dsDNA degradation); assay type: biochemical; details: 10 µM; EXO1 5 nM
# T1 construct: made in house
# T1 sequence (Q9UQ84 1-846): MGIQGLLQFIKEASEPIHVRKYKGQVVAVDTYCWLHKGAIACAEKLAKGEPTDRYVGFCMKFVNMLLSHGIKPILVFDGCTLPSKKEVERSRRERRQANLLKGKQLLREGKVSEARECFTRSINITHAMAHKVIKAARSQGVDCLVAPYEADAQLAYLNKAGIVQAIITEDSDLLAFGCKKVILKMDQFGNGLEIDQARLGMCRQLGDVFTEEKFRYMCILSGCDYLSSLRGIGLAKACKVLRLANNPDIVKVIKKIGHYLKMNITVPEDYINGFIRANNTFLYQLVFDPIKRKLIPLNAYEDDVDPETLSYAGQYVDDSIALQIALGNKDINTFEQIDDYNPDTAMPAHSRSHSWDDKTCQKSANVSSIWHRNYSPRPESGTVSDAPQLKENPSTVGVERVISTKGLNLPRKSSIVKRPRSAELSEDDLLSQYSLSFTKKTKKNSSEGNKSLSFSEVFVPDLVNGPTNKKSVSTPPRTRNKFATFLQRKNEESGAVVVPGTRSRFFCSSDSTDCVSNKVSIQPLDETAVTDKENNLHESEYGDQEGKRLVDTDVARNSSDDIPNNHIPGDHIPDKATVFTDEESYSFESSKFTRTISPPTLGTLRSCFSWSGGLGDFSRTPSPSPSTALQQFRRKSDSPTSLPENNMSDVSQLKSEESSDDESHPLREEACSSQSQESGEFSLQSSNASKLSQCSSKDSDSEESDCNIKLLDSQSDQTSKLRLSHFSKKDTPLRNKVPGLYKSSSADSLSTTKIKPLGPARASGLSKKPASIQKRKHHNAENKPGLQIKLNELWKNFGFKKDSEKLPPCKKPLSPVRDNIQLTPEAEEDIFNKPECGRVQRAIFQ
# Experimental: Nuclease assays were performed in buffer R (20 mM Na-HEPES pH 7.5, 1 mM ATP, 0.1 mM DTT, 100 μg/ml bovine serum albumin, 0.05% Triton X-100, 2 mM MgCl2, 100 mM KCl) and contained 0.5 nM ends (2-kb substrate) or 5 nM ends (the ssDNA oligonucleotide PSOL6929) of DNA. Reactions containing Bloom syndrome also included an ATP regenerating system consisting of 10 mM creatine phosphate and 50 μg/ml creatine kinase. In control reactions, DMSO was used in place of the inhibitor. Reactions with DNA2 alone were incubated at 30 °C, and those with DNA2-Bloom syndrome-Replication protein A and EXO1 were incubated at 37 °C for the indicated times. […] Gels were dried onto DEAE paper on top of Whatman filter paper (GE, Issaquah, WA, USA) and then analyzed in a BioRad Personal Molecular Imager FX phosphorimager. Band intensity was quantified using Image Lab software (Bio-Rad, Hercules, CA, USA). The fraction of DNA substrate digested was determined by measuring the amount of substrate remaining and normalizing to the total substrate in the negative control lane containing no protein.
# Figure S2. […] (b) Plots showing quantitation of the experiments shown in a. […] (d) Plots showing quantitation of the experiments shown in c. […] (f) Plot showing quantitation of the experiment in e. […]
# U2OS SSA reporter cells = experiment: Single strand annealing (SSA) GFP reporter assay; assay type: cell-based, human; details: 24-h treatment
# Source text: The DR-green fluorescent protein, pCAGGS and pCBASce plasmids were kindly provided by Dr Maria Jasin (Memorial Sloan-Kettering Cancer Center, New York, NY, USA). U2OS cells containing a single copy of the HR repair reporter substrate DR-green fluorescent protein were generated as previously described.[48] Single stand annealing reporter cells were kindly provided by Dr Jeremy Stark (Beckman Research Institute of the City of Hope, Duarte, CA, USA).[49] Details in Supplementary Materials and Methods.
# Figure S6. NSC-105808 reduces DSB repair by SSA. Cells were transfected with EGFP or I-SceI plasmids for 24 hrs and then cultured for an additional 48 hr before analysis by flow cytometry (top). Treatment with NSC-105808 was for 24 hrs prior to flow cytometry. Bar graph showing SSA efficiency in cells treated with NSC-105808 as compared to control cells treated with DMSO. The average data from three independent experiments are shown, with the error bars representing standard deviation (n=3, bottom).
# The GFP expressing plasmid (pEGFP-C1) was used for transfection efficiency control. Cells were transfected with the pCBASce plasmid. […] Efficiency of HR and SSA was calculated by normalizing I-SceI-induced GFP expression with EGFP transfection-induced GFP expression. […]
structure (smiles),measurement,setting,value
"NC1=C(Br)C(=O)c2ncccc2C1=O [NSC-105808, 6-amino-7-bromoquinoline-5,8-dione]",Effect on nuclease activity of EXO1,EXO1,does not inhibit
same,DSB repair by single stand annealing,U2OS SSA reporter cells,significantly reduced
